# Laboratory results taken from ChEMBL document CHEMBL1127997, “Synthesis of new thiazinoindole derivatives and their evaluation as inhibitors of human leukocyte elastase and other related serine proteases” (Bioorg Med Chem Lett, 1994).
# Tests used:
# Neutrophil elastase [1] = target: T1, Neutrophil elastase (Homo sapiens, UniProt P08246); experiment: Compound was tested for inhibition of human leukocyte Elastase at 32 uM concentration from human polymorphonuclear leukocytes
# T1 sequence (P08246 whole entry): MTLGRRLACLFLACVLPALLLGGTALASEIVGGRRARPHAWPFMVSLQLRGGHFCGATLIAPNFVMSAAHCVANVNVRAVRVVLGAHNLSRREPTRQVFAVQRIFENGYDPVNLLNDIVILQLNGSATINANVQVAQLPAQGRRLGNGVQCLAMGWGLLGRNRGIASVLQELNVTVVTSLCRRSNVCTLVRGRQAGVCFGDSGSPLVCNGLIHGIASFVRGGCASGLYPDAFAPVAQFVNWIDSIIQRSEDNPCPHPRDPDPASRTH
# Neutrophil elastase [2] = target: T1, Neutrophil elastase; experiment: Compound was tested for inhibition of human leukocyte Elastase at 23 uM concentration from human polymorphonuclear leukocytes
# Neutrophil elastase [3] = target: T1, Neutrophil elastase; experiment: Compound was tested for inhibition of human leukocyte Elastase at 16 uM concentration from human polymorphonuclear leukocytes
# Neutrophil elastase [4] = target: T1, Neutrophil elastase; experiment: Compound was tested for inhibition of human leukocyte Elastase at 15 uM concentration from human polymorphonuclear leukocytes
# Neutrophil elastase [5] = target: T1, Neutrophil elastase; experiment: Compound was tested for inhibition of human leukocyte Elastase at 64 uM concentration from human polymorphonuclear leukocytes
# [6] = target: Chymotrypsinogen A (Bos taurus) (UniProt P00766); experiment: Compound was tested for inhibitory activity against […] alpha-chymotrypsin; conditions: concentration not given here
# [7] = target: T2, Cathepsin G (Homo sapiens) (UniProt P08311); experiment: Compound was tested for inhibitory activity against human Cathepsin G; conditions: concentration not given here
# T2 sequence (whole entry): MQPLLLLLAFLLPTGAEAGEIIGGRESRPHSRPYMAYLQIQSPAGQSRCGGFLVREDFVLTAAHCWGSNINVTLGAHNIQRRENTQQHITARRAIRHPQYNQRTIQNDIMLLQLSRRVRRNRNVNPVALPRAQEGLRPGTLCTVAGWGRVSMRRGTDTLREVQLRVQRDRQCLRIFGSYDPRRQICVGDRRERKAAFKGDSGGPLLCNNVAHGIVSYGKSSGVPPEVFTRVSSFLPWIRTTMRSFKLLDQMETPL
# Neutrophil elastase [8] = target: T1, Neutrophil elastase; experiment: Compound was tested for inhibition of human leukocyte Elastase at 13 uM concentration from human polymorphonuclear leukocytes
# Neutrophil elastase [9] = target: T1, Neutrophil elastase; experiment: Compound was tested for inhibition of human leukocyte Elastase from human polymorphonuclear leukocytes; not inhibitory at the limit of solubility
# Neutrophil elastase [10] = target: T1, Neutrophil elastase; experiment: Compound was tested for inhibition of human leukocyte Elastase at 51 uM concentration from human polymorphonuclear leukocytes
structure (smiles),measurement,setting,value
Oc1sc(Nc2ccccc2F)nc2c3ccccc3nc1-2,Ki,Neutrophil elastase [1],≥ 88 µM
Oc1sc(Nc2ccc(Cl)cc2)nc2c3ccccc3nc1-2,Ki,Neutrophil elastase [2],29 µM
Oc1sc(Nc2cccc(F)c2)nc2c3ccccc3nc1-2,Ki,Neutrophil elastase [3],≥ 72 µM
O=[N+]([O-])c1ccc(Nc2nc3c4ccccc4nc-3c(O)s2)cc1,Ki,Neutrophil elastase [4],≥ 45 µM
Oc1sc(Nc2ccccc2)nc2c3ccccc3nc1-2,Ki,Neutrophil elastase [5],43 µM
same,inhibition,[6],13.3%
same,inhibition,[7],11.1%
Oc1sc(Nc2ccc(Br)cc2)nc2c3ccccc3nc1-2,Ki,Neutrophil elastase [8],≥ 30 µM
CCCNc1nc2c3ccccc3nc-2c(O)s1,Ki,Neutrophil elastase [9],No inhibition
Oc1sc(Nc2ccc(F)cc2)nc2c3ccccc3nc1-2,Ki,Neutrophil elastase [10],≥ 104 µM
Cc1ccc(Nc2nc3c4ccccc4nc-3c(O)s2)cc1,Ki,Neutrophil elastase [3],≥ 78 µM
CCNc1nc2c3ccccc3nc-2c(O)s1,Ki,Neutrophil elastase [9],No inhibition
Oc1sc(Nc2cccc(C(F)(F)F)c2)nc2c3ccccc3nc1-2,Ki,Neutrophil elastase [8],≥ 30 µM
same,inhibition,[6],34.2%
same,inhibition,[7],5.3%
CNc1nc2c3ccccc3nc-2c(O)s1,Ki,Neutrophil elastase [9],No inhibition
